Biological target: T1, rat NaPi-2b (Rattus norvegicus, UniProt Q9JJ09)
T1 construct: expressed in transfected cells; host or cells: Xenopus oocytes injected with cRNA
T1 sequence (Q9JJ09 1-695): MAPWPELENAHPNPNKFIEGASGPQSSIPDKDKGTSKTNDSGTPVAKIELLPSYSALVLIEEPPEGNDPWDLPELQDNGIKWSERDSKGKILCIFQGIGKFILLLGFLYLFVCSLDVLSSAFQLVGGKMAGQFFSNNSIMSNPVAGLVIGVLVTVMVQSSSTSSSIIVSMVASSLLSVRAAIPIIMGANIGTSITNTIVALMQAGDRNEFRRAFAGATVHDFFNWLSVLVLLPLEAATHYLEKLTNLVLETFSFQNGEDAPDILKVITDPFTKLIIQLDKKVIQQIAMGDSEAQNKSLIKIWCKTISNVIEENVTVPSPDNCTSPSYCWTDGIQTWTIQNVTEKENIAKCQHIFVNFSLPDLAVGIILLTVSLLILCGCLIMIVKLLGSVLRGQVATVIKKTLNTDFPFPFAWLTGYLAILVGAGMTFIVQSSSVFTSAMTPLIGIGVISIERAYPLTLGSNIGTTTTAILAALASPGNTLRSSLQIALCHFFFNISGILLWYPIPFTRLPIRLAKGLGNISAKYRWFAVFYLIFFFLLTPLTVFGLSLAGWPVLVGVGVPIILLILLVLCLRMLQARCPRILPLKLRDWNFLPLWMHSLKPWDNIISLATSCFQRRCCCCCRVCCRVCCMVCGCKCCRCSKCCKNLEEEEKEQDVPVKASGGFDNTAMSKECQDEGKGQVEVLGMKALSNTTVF
Assay: Sodium-dependent phosphate uptake of Xenopus oocytes which expressed NaPi-2b (32P)
Format: cell-based
Conditions: for IC50: Xenopus oocytes expressing rat NaPi-2b, 32P radioactive phosphorus, read-out: IC50 (phosphate uptake inhibitory activity); for inhibition at 300 µM: phosphate uptake, oocytes expressing rat NaPi-2b, determined from inhibition curve
Summary of the method: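 Read-out is 32P phosphate uptake into Xenopus oocytes expressing rat intestinal NaPi-2b (cRNA injection, 2-day culture). Inhibition at 300 μM and 100 μM was derived from a single inhibition curve and given as percent.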

SMILES	IC50 [µM]	inhibition at 300 µM [%]
CCN(CC)CCNCc1cccc(C(=O)Nc2scc(C)c2C(=O)N/N=C/c2ccc(OC)cc2)c1 [Compound 586, 3-[(2-Diethylamino-ethylamino)-methyl]-N-[3-(4-methoxy-benzylidene-hydrazinocarbonyl)-4-methyl-thiophen-2-yl]-benzamide]	< 3	
COc1ccc(/C=N/NC(=O)c2cscc2NC(=O)c2cccc(CN3CCN(CCO)CC3)c2)cc1 [Compound 984, 3-[4-(2-Hydroxy-ethyl)-piperazin-1-ylmethyl]-N-[4-(4-methoxy-benzylidene-hydrazinocarbonyl)-thiophen-3-yl]-benzamide]	22.1	
COc1cc(OC)cc(C(=O)Nc2ccccc2C(=O)N/N=C/c2ccc(C)cc2)c1 [Compound 57, 3,5-Dimethoxy-N-[2-(4-methyl-benzylidene-hydrazinocarbonyl)-phenyl]-benzamide]	1.02	
O=c1c2c3c(sc2nc(-c2cccc(CSc4nc[nH]n4)c2)n1/N=C/c1cccc(F)c1)CCCC3 [Compound 649, 3-[(3-Fluoro-benzylidene)-amino]-2-[3-(1H-[1,2,4]triazol-3-ylsulfanylmethyl)-phenyl]-5,6,7,8-tetrahydro-3H-benzo[4,5]thieno[2,3-d]pyrimidin-4-one]	2.69	
C=CCOc1ccc(/C=N/NC(=O)c2ccccc2NC(=O)c2ccc(OC)c(OC)c2)cc1 [Compound 52, N-[2-(4-Allyloxy-benzylidene-hydrazinocarbonyl)-phenyl]-3,4-dimethoxy-benzamide]	10.4	
O=C(Nc1ccc(Br)cc1C(=O)N/N=C/c1ccc(Cl)c(C(F)(F)F)c1)c1ccc(CN2CCN(CCO)CC2)cc1 [Compound 321, N-[4-Bromo-2-(4-chloro-3-trifluoromethyl-benzylidene-hydrazinocarbonyl)-phenyl]-4-[4-(2-hydroxy-ethyl)-piperazin-1-ylmethyl]-benzamide]	2.66	
CC(O)CN(Cc1cccc(C(=O)Nc2ccc(N3CCCC3=O)cc2C(=O)N/N=C/c2ccc(F)cc2)c1)CC(C)O (centres unmarked) [Compound 947, 3-{[Bis-(2-hydroxy-propyl)-amino]-methyl}-N-[2-(4-fluoro-benzylidene-hydrazinocarbonyl)-4-(2-oxo-pyrrolidin-1-yl)-phenyl]-benzamide]	30.2	
CCN(CC)CCNCc1cccc(C(=O)Nc2c(C)csc2C(=O)N/N=C/c2cccc(F)c2)c1 [Compound 538, 3-[(2-Diethylamino-ethylamino)-methyl]-N-[2-(3-fluoro-benzylidene-hydrazinocarbonyl)-4-methyl-thiophen-3-yl]-benzamide]		30.3
COc1ccc(C(=O)Nc2ccccc2C(=O)N/N=C/c2cccc([N+](=O)[O-])c2)cc1OC [Compound 103, 3,4-Dimethoxy-N-[2-(3-nitro-benzylidene-hydrazinocarbonyl)-phenyl]-benzamide]	5.73	
O=C(Nc1sc2c(c1C(=O)N/N=C/c1ccc(F)cc1)CCCC2)c1cccc(CSCCCO)c1 [Compound 606, N-[3-(4-Fluoro-benzylidene-hydrazinocarbonyl)-4,5,6,7-tetrahydro-benzo[b]thiophen-2-yl]-3-(3-hydroxy-propylsulfanylmethyl)-benzamide]	1.01	
CCN(CC)CCN(C)Cc1cccc(C(=O)Nc2c(C)csc2C(=O)N/N=C/c2ccc(OC)cc2)c1 [Compound 530, 3-{[(2-Diethylamino-ethyl)-methyl-amino]-methyl}-N-[2-(4-methoxy-benzylidene-hydrazinocarbonyl)-4-methyl-thiophen-3-yl]-benzamide]		38.2
Cc1ccc(/C=N/NC(=O)c2cc(Cl)ccc2NC(=O)c2cccc(CSCc3ccco3)c2)cc1 [Compound 682, N-[4-Chloro-2-(4-methyl-benzylidene-hydrazinocarbonyl)-phenyl]-3-(furan-2-ylmethylsulfanylmethyl)-benzamide]	12.5	
Cn1cccc1/C=N/NC(=O)c1ccccc1NC(=O)c1ccncc1 [Compound 210, N-[2-(1-Methyl-1H-pyrrol-2-ylmethylene-hydrazinocarbonyl)-phenyl]-isonicotinamide]	35	
Cc1ccc(/C=N/NC(=O)c2cscc2NC(=O)c2cccc(CN(CC(C)O)CC(C)O)c2)cc1C (centres unmarked) [Compound 977, 3-{[Bis-(2-hydroxy-propyl)-amino]-methyl}-N-[4-(3,4-dimethyl-benzylidene-hydrazinocarbonyl)-thiophen-3-yl]-benzamide]	10.1	
CCN(CC)CCN(C)Cc1cccc(C(=O)Nc2ccc(N3CCSCC3)cc2C(=O)N/N=C/c2ccc(Cl)c(C(F)(F)F)c2)c1 [Compound 929, N-[2-(4-Chloro-3-trifluoromethyl-benzylidene-hydrazinocarbonyl)-4-thiomorpholin-4-yl-phenyl]-3-{[(2-diethylamino-ethyl)-methyl-amino]-methyl}-benzamide]	< 1	
Cc1ccc(/C=N/NC(=O)c2ccccc2NC(=O)c2cccc(F)c2)cc1 [Compound 84, 3-Fluoro-N-[2-(4-methyl-benzylidene-hydrazinocarbonyl)-phenyl]-benzamide]	8.42	
CC(O)CN(Cc1cccc(C(=O)Nc2ccc(F)cc2C(=O)Nc2ccc(F)cc2C(=O)N/N=C/c2cccc(F)c2)c1)CC(C)O (centres unmarked) [Compound 988, 2-(3-{[Bis-(2-hydroxy-propyl)-amino]-methyl}-benzoylamino)-5-fluoro-N-[4-fluoro-2-(3-fluoro-benzylidene-hydrazinocarbonyl)-phenyl]-benzamide]	3.88	
Cc1cccc(/C=N/NC(=O)c2cc(Cl)ccc2NC(=O)c2cccc(CN3CCC(N4CCCCC4)CC3)c2)c1 [Compound 370, 3-[1,4′]Bipiperidinyl-1′-ylmethyl-N-[4-chloro-2-(3-methyl-benzylidene-hydrazinocarbonyl)-phenyl]-benzamide]	1.86	
COc1ccc(C(=O)Nc2ccc(Br)cc2C(=O)N/N=C/C=C/c2ccccc2)cc1OC [Compound 13, N-[4-Bromo-2-(3-phenyl-allylidene-hydrazinocarbonyl)-phenyl]-3,4-dimethoxy-benzamide]	9.22	

Results, then the compound that gave them:

IC50 [µM]	inhibition at 300 µM [%]	SMILES
7.65		CCN(CCO)Cc1ccc(C(=O)Nc2ccc(Cl)cc2C(=O)N/N=C/c2ccc(C)cc2)cc1 [Compound 435, N-[4-Chloro-2-(4-methyl-benzylidene-hydrazinocarbonyl)-phenyl]-4-{[ethyl-(2-hydroxy-ethyl)-amino]-methyl}-benzamide]
14.4		O=C(Nc1ccc(Br)cc1C(=O)N/N=C/c1ccc(F)cc1)c1ccc(CN2CCC(CCO)CC2)cc1 [Compound 743, N-[4-Bromo-2-(4-fluoro-benzylidene-hydrazinocarbonyl)-phenyl]-4-[4-(2-hydroxy-ethyl)-piperidin-1-ylmethyl]-benzamide]
	30.3	Cc1cccc(C=NNC(=O)c2cc(Br)ccc2NC(=O)c2ccc(C(C)(C)C)cc2)c1 [Compound 248, N-[4-Bromo-2-(3-methyl-benzylidene-hydrazinocarbonyl)-phenyl]-4-tert-butyl-benzamide]
< 3		CCc1ccc(C(=O)Nc2ccc(Br)cc2C(=O)N/N=C/c2ccc(Cl)c(C(F)(F)F)c2)cc1 [Compound 183, N-[4-Bromo-2-(4-chloro-3-trifluoromethyl-benzylidene-hydrazinocarbonyl)-phenyl]-4-ethyl-benzamide]
0.35		O=C(Nc1ccc(Br)cc1C(=O)N/N=C/c1cccc(F)c1)c1ccccn1 [Compound 495, Pyridin-2-carboxylic acid[4-bromo-2-(3-fluoro-benzylidene-hydrazinocarbonyl)-phenyl]-amide]
4.24		Cc1ccc(/C=N/NC(=O)c2cc(Br)ccc2NC(=O)c2ccncc2)cc1 [Compound 169, N-[4-Bromo-2-(4-methyl-benzylidene-hydrazinocarbonyl)-phenyl]-isonicotinamide]
	81.9	CCSCCNCc1ccc(C(=O)Nc2ccc(Br)cc2C(=O)N/N=C/c2cccc(C)c2)cc1 [Compound 766, N-[4-Bromo-2-(3-methyl-benzylidene-hydrazinocarbonyl)-phenyl]-4-[(2-ethylsulfanyl-ethylamino)-methyl]-benzamide]
0.16		O=C(Nc1ccc(Br)cc1C(=O)N/N=C/c1ccc(Cl)c(C(F)(F)F)c1)c1ccc(CSCCCO)cc1 [Compound 278, N-[4-Bromo-2-(4-chloro-3-trifluoromethyl-benzylidene-hydrazinocarbonyl)-phenyl]-4-(3-hydroxy-propylsulfanylmethyl)-benzamide]
0.96		Cc1ccc(/C=N/NC(=O)c2cc(Br)ccc2NC(=O)c2cccs2)cc1C [Compound 161, Thiophene-2-carboxylic acid [4-bromo-2-(3,4-dimethyl-benzylidene-hydrazinocarbonyl)-phenyl]-amide]
5.93		COc1ccc(/C=N/NC(=O)c2cc(Br)ccc2NC(=O)c2ccc(CN3CCN(CCO)CC3)cc2)cc1 [Compound 322, N-[4-Bromo-2-(4-methoxy-benzylidene-hydrazinocarbonyl)-phenyl]-4-[4-(2-hydroxy-ethyl)-piperazin-1-ylmethyl]-benzamide]
